Reference: patent US20240228448A1 (Washington University, priority 2021, published 2024)
Where “and” joins values, the source holds several entries; their conditions need not be identical. Identical values can stand only once.

How the values were obtained:
[1] = Ex vivo biodistribution study in Sprague Dawley rats; details: SD rats
Description: To evaluate the kinetics and the tissue distribution of [^18F]FS1P1 in rodents, Sprague Dawley (SD) male rats (6-7 weeks old; 200-300 g) were used and euthanized at 5, 30, 60, and 120 min post-injection. The radioactivity uptake of each organ was calculated as percentage injected dose per gram (% ID/gram). As shown in FIG. 7A-FIG. 7B, the initial tracer uptake was high in most tissues at 5 min. The liver had the highest uptake (% ID/g) at 3.04±0.18, whereas the heart, lung, spleen, kidney, and small intestine had moderate to high uptake at 1.39±0.15, 1.44±0.13, 1.14±0.13, 1.76±0.15, and 1.00±0.21 respectively. The radioactivity was rapidly washed out from heart, lung, pancreas, spleen, kidney, and liver, at 30 min post injection with ID %/g values decreasing to 0.55±0.02, 0.84±0.05, 0.66±0.04, 0.54±0.03, 1.13±0.66, and 2.51±0.10 respectively as shown in FIG. 7A.
A dose of [^18F]FS1P1 (˜3.7 MBq/100 μL) was injected via the tail vein into SD rats (male; 6-7 weeks old; 200-300 g). Rats were euthanized under anesthesia at 5, 30, 60, and 120 min post-injection (n=4 per group). Tissues of interest including blood, heart, lung, muscle, fat, pancreas, spleen, kidney, liver, brain, bone, thymus, small intestine, and large intestine were collected, weighed, and counted on an automated Beckman Gamma counter (Beckman, Brea, CA). To evaluate the uptake of [^18F]FS1P1 within the brain, brain dissection was performed and different brain regions including brain stem, cerebellum, cortex, striatum, thalamus, and hippocampus were collected and evaluated. The uptake of each organ was calculated and expressed as a percentage of the injection dose per gram of wet tissue (% ID per gram).

[2] = Radiometabolite analysis of nonhuman primate plasma samples; assay type: in vivo, macaque; details: for percentage of the parental radiotracer of total radioactivity: macaque plasma
Description: HPLC radiometabolite analysis of the macaque plasma samples collected at different time points post-injection of [^18F]FS1P1 was performed as previously reported (H. Liu, et al., Mol. Imaging Biol., 2020, 22, 1362-1369.). A male macaque (˜10 kg) was intravenously injected with ˜0.35 GBq of [^18F]FS1P1. […] Plasma (400 μL) was then collected and mixed with 1.2 mL ice-cold acetonitrile to deproteinize. […] The eluted fractions were collected at one-minute intervals for a total of 16 minutes, the radioactivity of each fraction collection was counted in an automated gamma counter (Beckman, Brea, CA), and results were corrected by background radioactive counts and physical decay. The chromatography was regenerated represented by the percentage that was calculated by radioactivity count of every minute collection divided by the total injection amount on the HPLC system and multiplied by 100.

S1P1 = target: T1, S1P1 (Rattus norvegicus, UniProt P48303); experiment: In vitro autoradiography of rat spinal cord and brain sections with CS1P1 blocking; assay type: binding; details: blocked by CS1P1 (5 μM), in words
T1 construct: conducted on rat spinal cord and brain section incubated with [^18F]FS1P1; from tissue; host or cells: rat brain (cortex, hippocampus) and spinal cord sections

[3] = MicroPET brain study in cynomolgus macaque; details: macaque brain
Description: Using a Focus 220 microPET scanner to collect dynamic scans for 2 hours after intravenous injection of ˜0.35 GBq dose into male macaques. Radiometabolites were measured from arterial blood samples collected at 5, 15, 30, and 60 min post-injection of radiotracer. The HPLC eluent was collected, and fractions were counted in a gamma counter.
Male macaques (˜10 kg) were used for PET imaging data acquisition with a microPET Focus 220 scanner (Siemens Inc., Knoxville, TN). Animals were anesthetized using ketamine and glycopyrrolate and maintained with inhalation of isoflurane. Core temperature was kept at 37° C. with a heated water blanket. The head was secured in a customized head holder. […] Emission data were corrected for dead time, scatter, and attenuation and then reconstructed. […] Predefined brain regions of interest from the template were applied to the co-registered PET image to obtain regional time-activity curves. The measurement of the brain uptake of radiotracer was standardized to body weight and the dose of radioactivity injected to yield a standardized uptake value (SUV).
The brain uptakes of these tracers were measured by Focus 220 microPET scanner to collect dynamic scans for 2 hours after intravenous injection of ˜0.35 GBq dose into male cynomolgus macaques (8-9 kg).

T1 sequence (P48303 whole entry): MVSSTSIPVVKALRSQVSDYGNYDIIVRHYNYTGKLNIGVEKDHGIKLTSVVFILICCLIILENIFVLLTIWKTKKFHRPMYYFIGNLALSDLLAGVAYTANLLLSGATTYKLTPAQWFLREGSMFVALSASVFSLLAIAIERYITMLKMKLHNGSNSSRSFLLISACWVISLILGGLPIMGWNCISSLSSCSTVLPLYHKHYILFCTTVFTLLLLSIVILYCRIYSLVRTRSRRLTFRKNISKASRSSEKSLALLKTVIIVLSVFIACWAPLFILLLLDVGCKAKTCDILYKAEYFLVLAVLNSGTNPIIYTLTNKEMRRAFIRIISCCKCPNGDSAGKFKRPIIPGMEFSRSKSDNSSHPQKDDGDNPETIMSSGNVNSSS

With `Cc1ccccc1-c1ccc(-c2nc(-c3ccc(CN(C)CCC(=O)O)c([18F])c3)no2)cc1C(F)(F)F` [[^18F]FS1P1] the “Tissue uptake (% ID/g)” value ([1]; Blood, 5 min post-injection) was 0.16 ± 0.09 % ID/g, the “Tissue uptake (% ID/g)” value ([1]; Blood, 30 min post-injection) was 0.13 ± 0.01 % ID/g and the “Tissue uptake (% ID/g)” value ([1]; Blood, 60 min post-injection) was 0.13 ± 0.01 % ID/g. The “Tissue uptake (% ID/g)” value ([1]; Blood, 120 min post-injection) was 0.10 ± 0.01 % ID/g, the “Tissue uptake (% ID/g)” value ([1]; Bone, 5 min post-injection) was 0.20 ± 0.13 % ID/g and the “Tissue uptake (% ID/g)” value ([1]; Bone, 30 min post-injection) was 0.16 ± 0.01 % ID/g. The “Tissue uptake (% ID/g)” value ([1]; Bone, 60 min post-injection) was 0.15 ± 0.02 % ID/g, the “Tissue uptake (% ID/g)” value ([1]; Bone, 120 min post-injection) was 0.11±0.02 % ID/g and the “Tissue uptake (% ID/g)” value ([1]; Brain stem, 5 min post-injection) was 0.48 ± 0.14 % ID/g. For the same molecule, the “Tissue uptake (% ID/g)” value ([1]; Brain stem, 30 min post-injection) was 0.52 ± 0.03 % ID/g, the “Tissue uptake (% ID/g)” value ([1]; Brain stem, 60 min post-injection) was 0.68 ± 0.07 % ID/g and the “Tissue uptake (% ID/g)” value ([1]; Brain stem, 120 min post-injection) was 0.71 ± 0.11 % ID/g. The “Tissue uptake (% ID/g)” value ([1]; Cerebellum, 5 min post-injection) was 0.42 ± 0.28 % ID/g, the “Tissue uptake (% ID/g)” value ([1]; Cerebellum, 30 min post-injection) was 0.52 ± 0.05 % ID/g and the “Tissue uptake (% ID/g)” value ([1]; Cerebellum, 60 min post-injection) was 0.66 ± 0.07 % ID/g. For the same molecule, the “Tissue uptake (% ID/g)” value ([1]; Cerebellum, 120 min post-injection) was 0.77 ± 0.12 % ID/g, the “Tissue uptake (% ID/g)” value ([1]; Cortex, 5 min post-injection) was 0.35 ± 0.25 % ID/g and the “Tissue uptake (% ID/g)” value ([1]; Cortex, 30 min post-injection) was 0.51 ± 0.07 % ID/g. For the same molecule, the “Tissue uptake (% ID/g)” value ([1]; Cortex, 60 min post-injection) was 0.59 ± 0.13 % ID/g, the “Tissue uptake (% ID/g)” value ([1]; Cortex, 120 min post-injection) was 0.67 ± 0.10 % ID/g and the “Tissue uptake (% ID/g)” value ([1]; Fat, 5 min post-injection) was 0.05 ± 0.03 % ID/g. For the same molecule, the “Tissue uptake (% ID/g)” value ([1]; Fat, 30 min post-injection) was 0.16 ± 0.02 % ID/g, the “Tissue uptake (% ID/g)” value ([1]; Fat, 60 min post-injection) was 0.15 ± 0.02 % ID/g and the “Tissue uptake (% ID/g)” value ([1]; Fat, 120 min post-injection) was 0.14 ± 0.02 % ID/g. The “Tissue uptake (% ID/g)” value ([1]; Heart, 5 min post-injection) was 1.02 ± 0.69 % ID/g, the “Tissue uptake (% ID/g)” value ([1]; Heart, 30 min post-injection) was 0.55±0.02 % ID/g and 0.54 ± 0.03 % ID/g and the “Tissue uptake (% ID/g)” value ([1]; Heart, 60 min post-injection) was 0.49 ± 0.02 % ID/g. The “Tissue uptake (% ID/g)” value ([1]; Heart, 120 min post-injection) was 0.39 ± 0.07 % ID/g, the “Tissue uptake (% ID/g)” value ([1]; Hippocampus, 5 min post-injection) was 0.32 ± 0.21 % ID/g and the “Tissue uptake (% ID/g)” value ([1]; Hippocampus, 30 min post-injection) was 0.41 ± 0.03 % ID/g. The “Tissue uptake (% ID/g)” value ([1]; Hippocampus, 60 min post-injection) was 0.54 ± 0.03 % ID/g, the “Tissue uptake (% ID/g)” value ([1]; Hippocampus, 120 min post-injection) was 0.42 ± 0.28 % ID/g and the “Tissue uptake (% ID/g)” value ([1]; Kidney, 5 min post-injection) was 1.33 ± 0.87 % ID/g. For the same molecule, the “Tissue uptake (% ID/g)” value ([1]; Kidney, 30 min post-injection) was 1.13±0.66 % ID/g and 1.13 ± 0.13 % ID/g, the “Tissue uptake (% ID/g)” value ([1]; Kidney, 60 min post-injection) was 1.10 ± 0.08 % ID/g and the “Tissue uptake (% ID/g)” value ([1]; Kidney, 120 min post-injection) was 1.02 ± 0.17 % ID/g. The “Tissue uptake (% ID/g)” value ([1]; Liver, 5 min post-injection) was 2.30 ± 1.50 % ID/g, the “Tissue uptake (% ID/g)” value ([1]; Liver, 30 min post-injection) was 2.51±0.10 % ID/g and 2.51 ± 0.20 % ID/g and the “Tissue uptake (% ID/g)” value ([1]; Liver, 60 min post-injection) was 2.32 ± 0.10 % ID/g. The “Tissue uptake (% ID/g)” value ([1]; Liver, 120 min post-injection) was 2.08 ± 0.47 % ID/g, the “Tissue uptake (% ID/g)” value ([1]; Lung, 5 min post-injection) was 1.08 ± 0.74 % ID/g and the “Tissue uptake (% ID/g)” value ([1]; Lung, 30 min post-injection) was 0.84±0.05 % ID/g and 0.84 ± 0.09 % ID/g. The “Tissue uptake (% ID/g)” value ([1]; Lung, 60 min post-injection) was 0.68 ± 0.04 % ID/g, the “Tissue uptake (% ID/g)” value ([1]; Lung, 120 min post-injection) was 0.43 ± 0.30 % ID/g and the “Tissue uptake (% ID/g)” value ([1]; Muscle, 5 min post-injection) was 0.11 ± 0.07 % ID/g. The “Tissue uptake (% ID/g)” value ([1]; Muscle, 30 min post-injection) was 0.19 ± 0.01 % ID/g, the “Tissue uptake (% ID/g)” value ([1]; Muscle, 60 min post-injection) was 0.18 ± 0.05 % ID/g and the “Tissue uptake (% ID/g)” value ([1]; Muscle, 120 min post-injection) was 0.15 ± 0.02 % ID/g. The “Tissue uptake (% ID/g)” value ([1]; Pancreas, 5 min post-injection) was 0.72 ± 0.47 % ID/g, the “Tissue uptake (% ID/g)” value ([1]; Pancreas, 30 min post-injection) was 0.66±0.04 % ID/g and 0.66 ± 0.08 % ID/g and the “Tissue uptake (% ID/g)” value ([1]; Pancreas, 60 min post-injection) was 0.52 ± 0.05 % ID/g. For the same molecule, the “Tissue uptake (% ID/g)” value ([1]; Pancreas, 120 min post-injection) was 0.43 ± 0.06 % ID/g, the “in vivo defluorination (bone uptake 5 to 120 min)” value ([1]; in words) was “no defluorination” and the “Tissue uptake (% ID/g)” value ([1]; Small intestine, 5 min post-injection) was 0.75 ± 0.57 % ID/g. For the same molecule, the “Tissue uptake (% ID/g)” value ([1]; Small intestine, 30 min post-injection) was 1.40 ± 0.36 % ID/g, the “Tissue uptake (% ID/g)” value ([1]; Small intestine, 60 min post-injection) was 1.42 ± 0.36 % ID/g and the “Tissue uptake (% ID/g)” value ([1]; Small intestine, 120 min post-injection) was 0.87 ± 0.21 % ID/g. The “Tissue uptake (% ID/g)” value ([1]; Spleen, 5 min post-injection) was 0.86 ± 0.58 % ID/g, the “Tissue uptake (% ID/g)” value ([1]; Spleen, 30 min post-injection) was 0.54±0.03 % ID/g and 0.54 ± 0.06 % ID/g and the “Tissue uptake (% ID/g)” value ([1]; Spleen, 60 min post-injection) was 0.47 ± 0.05 % ID/g. The “Tissue uptake (% ID/g)” value ([1]; Spleen, 120 min post-injection) was 0.37 ± 0.05 % ID/g, the “Tissue uptake (% ID/g)” value ([1]; Striatum, 5 min post-injection) was 0.32 ± 0.21 % ID/g and the “Tissue uptake (% ID/g)” value ([1]; Striatum, 30 min post-injection) was 0.46 ± 0.05 % ID/g. The “Tissue uptake (% ID/g)” value ([1]; Striatum, 60 min post-injection) was 0.43 ± 0.29 % ID/g, the “Tissue uptake (% ID/g)” value ([1]; Striatum, 120 min post-injection) was 0.67 ± 0.07 % ID/g and the “Tissue uptake (% ID/g)” value ([1]; Thymus, 5 min post-injection) was 0.23 ± 0.16 % ID/g. The “Tissue uptake (% ID/g)” value ([1]; Thymus, 30 min post-injection) was 0.30 ± 0.03 % ID/g, the “Tissue uptake (% ID/g)” value ([1]; Thymus, 60 min post-injection) was 0.30 ± 0.04 % ID/g and the “Tissue uptake (% ID/g)” value ([1]; Thymus, 120 min post-injection) was 0.31 ± 0.05 % ID/g. For the same molecule, the rat brain uptake ([1]; 5 min post-injection) was 0.48±0.06 ID %/g, the rat brain uptake ([1]; 30 min post-injection) was 0.48±0.02 ID %/g and the rat brain uptake ([1]; 60 min post-injection) was 0.60±0.04 ID %/g. The rat brain uptake ([1]; 120 min post-injection) was 0.65±0.03 ID %/g, the “Tissue uptake (% ID/g)” value ([1]; thalamus, 5 min post-injection) was 0.42 ± 0.31 % ID/g and the “Tissue uptake (% ID/g)” value ([1]; thalamus, 30 min post-injection) was 0.53 ± 0.03 % ID/g. For the same molecule, the “Tissue uptake (% ID/g)” value ([1]; thalamus, 60 min post-injection) was 0.64 ± 0.06 % ID/g, the “Tissue uptake (% ID/g)” value ([1]; thalamus, 120 min post-injection) was 0.70 ± 0.15 % ID/g and the “Tissue uptake (% ID/g)” value ([1]; total brain, 5 min post-injection) was 2.65 ± 1.63 % ID/g. For the same molecule, the “Tissue uptake (% ID/g)” value ([1]; total brain, 30 min post-injection) was 3.41 ± 0.29 % ID/g, the “Tissue uptake (% ID/g)” value ([1]; total brain, 60 min post-injection) was 4.12 ± 0.70 % ID/g and the “Tissue uptake (% ID/g)” value ([1]; total brain, 120 min post-injection) was 4.58 ± 0.92 % ID/g. The “radiometabolites in macaque plasma” value ([2]; 5, 15, 30, and 60 min post injection, in words) was “No major metabolite was detected”, the “percentage of the parental radiotracer of total radioactivity” value (“percentage” for short) ([2]; 5 min post-injection) was 96% and the “percentage” value ([2]; 15 min post-injection) was 96%. For the same molecule, the “percentage” value ([2]; 30 min post-injection) was 94%, the “percentage” value ([2]; 60 min post-injection) was 88% and the “autoradiography signal and blocking” value (S1P1) was “strong signal, which was blocked”. For the same molecule, the “brain uptake, standard uptake value (SUV)” value ([3]; 120 min post-injection) was about 2.3 and the “brain uptake, maximum SUV value” ([3]; from 20 to 120 min post-injection) was about 2.3.
